Literature values, collected in publication PMC8657489, “Identification of VEGF Signaling Inhibition-Induced Glomerular Injury in Rats through Site-Specific Urinary Biomarkers” (International Journal of Molecular Sciences, 2021).

Legend:
patients [1] = tested on: patients; parameters: method as in PMID 24574832; conditions: patients receiving Sunitinib
[2] = tested on: glomerular endothelial cells and podocytes; parameters: method as in PMID 17726104; conditions: rats
patients [3] = conditions: human, in vivo

In the case of `CCN(CC)CCNC(=O)c1c(C)[nH]c(/C=C2\C(=O)Nc3ccc(F)cc32)c1C` [Sunitinib], the renal adverse effects (patients [1]) is listed as “proteinuria and renal insufficiency were reported”.

For `COc1cc2c(Nc3ccc(Br)cc3F)ncnc2cc1OCC1CCN(C)CC1` [vandetanib], the glomerular morphological changes [2] is listed as “not only the loss of fenestration in glomerular endothelial cells, but also morphological changes in podocytes”.

For “Bevacizumab: monoclonal antibody against VEGF-A, also known as Avastin”, the “patients who developed proteinuria” value (patients [3]) is listed as 21~64% and the “proteinuria considered severe cases (grade 3–4)” value (patients [3]) is listed as 2.1–11.9%.
